≈ marks a conversion by molar mass, not a printed value. Where two headings read alike, the source gives them in different places.

What all share (type): cell-based
Assay [1] concerns Streptococcus pneumoniae 1175. The conditions noted are these: microtiter broth dilution. In short, it runs like this:
(§1)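 Broth microdilution MICs in microtiter trays, run and interpreted per NCCLS M100-S14. Compounds were dissolved in DMSO as 40 mg/ml stocks.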
(In general: Dilution methods test growth across graded concentrations, often in twofold steps.)

Assay [2] relates to Streptococcus pneumoniae 1095. The following applies: microtiter broth dilution. In short, it runs like this:
as §1

The test system of assay [3] is Streptococcus pyogenes 1079. As to the kind of experiment: MIC, microtiter broth dilution (NCCLS M100-S14), S. pyogenes 1079 (ermB). A digest of the protocol: as §1
Assay [4] has as its system Streptococcus pneumoniae 1016. As to the kind of experiment: MIC, microtiter broth dilution (NCCLS M100-S14), S. pneumoniae 1016 (susceptible). A digest of the protocol:
as §1

Assay [5] concerns Haemophilus influenzae 1218. As to the kind of experiment: MIC, microtiter broth dilution (NCCLS M100-S14), H. influenzae 1218 (susceptible). A digest of the protocol:
as §1

The mark [6] stands for this setting: S. pneumoniae 1016 (susceptible).
Setting [7] is: H. influenzae 1218 (susceptible).

For `CCC1OC(=O)C(C)C(=O)C(C)C(OC2OC(C)CC(N(C)C)C2O)C(C)(OC)CC(C)C(=O)C(C)C2N(CC3CCN(C(=O)c4cccc5ncsc45)C3)C(=O)OC12C` (stereo not shown) [13.14], in assay [1] (S. pneumoniae 1175 (mefA)), the “MIC S. pneumo. 1175” value is below 0.06 µg/mL. Further, in assay [2] (S. pneumoniae 1095 (ermB)), the “MIC S. pneumo. 1095” value was determined as 2 µg/mL (≈ 2.33 µM). Further, the “MIC S. pyogenes 1079” value in assay [3] (S. pyogenes 1079 (ermB)) is above 64.00 µg/mL. Moreover, the “MIC S. pneumo. 1016” value in assay [4] (setting [6]) was below 0.06 µg/mL. The “MIC H. influenzae 1218” value in assay [5] (setting [7]) came out at 1 µg/mL (≈ 1.17 µM).

On to `CCC1OC(=O)C(C)C(=O)C(C)C(OC2OC(C)CC(N(C)C)C2O)C(C)(OC)CC(C)C(=O)C(C)C2N(CC3CCCN3C(=O)c3cc4cccnc4[nH]3)C(=O)OC12C` (stereo not shown) [10.55], for which the “MIC S. pneumo. 1175” value in assay [1] (S. pneumoniae 1175 (mefA)) is below 0.06 µg/mL. In addition, the “MIC S. pneumo. 1095” value in assay [2] (S. pneumoniae 1095 (ermB)) is below 0.06 µg/mL. In addition, the “MIC S. pyogenes 1079” value in assay [3] (S. pyogenes 1079 (ermB)) was 32 µg/mL (≈ 38.1 µM). Moreover, the “MIC S. pneumo. 1016” value in assay [4] (setting [6]) was below 0.06 µg/mL. The “MIC H. influenzae 1218” value in assay [5] (setting [7]) is 1 µg/mL (≈ 1.19 µM).

In the case of `CCC1OC(=O)C(C)C(=O)C(C)C(OC2OC(C)CC(N(C)C)C2O)C(C)(OC)CC(C)C(=O)C(C)C2N(C3CN(S(=O)(=O)c4ccc(-c5ccc(Cl)nn5)cc4)C3)C(=O)OC12C` (stereo not shown) [Example 3.78], in assay [1] (Streptococcus pneumoniae 1175), the “MIC S. pneumo. 1175” value was below 0.06 µg/mL. In addition, the “MIC S. pneumo. 1095” value in assay [2] (Streptococcus pneumoniae 1095) was below 0.06 µg/mL. Besides, the “MIC S. pyogenes 1079” value in assay [3] (Streptococcus pyogenes 1079) was found to be 64 µg/mL (≈ 69.5 µM). The “MIC S. pneumo. 1016” value in assay [4] (Streptococcus pneumoniae 1016) is below 0.06 µg/mL. In addition, the “MIC H. influenzae 1218” value in assay [5] (Haemophilus influenzae 1218) worked out at 4 µg/mL (≈ 4.35 µM).

For `CC[C@H]1OC(=O)[C@H](C)C(=O)[C@H](C)[C@@H](O[C@@H]2O[C@H](C)C[C@H](N(C)C)[C@H]2O)[C@](C)(OC)C[C@@H](C)C(=O)[C@H](C)[C@H]2N(CC3(O)CN(S(=O)(=O)c4cccc5cnccc45)C3)C(=O)O[C@]12C` [7.14], the “MIC S. pneumo. 1175” value in assay [1] (S. pneumoniae 1175 (mefA)) was determined as 0.12 µg/mL (≈ 0.135 µM). Also, the “MIC S. pneumo. 1095” value in assay [2] (S. pneumoniae 1095 (ermB)) stood at 1 µg/mL (≈ 1.12 µM). Moreover, in assay [3] (S. pyogenes 1079 (ermB)), the “MIC S. pyogenes 1079” value was above 64.00 µg/mL. Besides, in assay [4] (setting [6]), the “MIC S. pneumo. 1016” value was below 0.06 µg/mL. Moreover, the “MIC H. influenzae 1218” value in assay [5] (setting [7]) is 0.25 µg/mL (≈ 0.281 µM).

Regarding `CC[C@H]1OC(=O)[C@H](C)C(=O)[C@H](C)[C@@H](O[C@@H]2O[C@H](C)C[C@H](N(C)C)[C@H]2O)[C@](C)(OC)C[C@@H](C)C(=O)[C@H](C)[C@H]2N(CC3(O)CN(S(=O)(=O)c4c(C)n[nH]c4C)C3)C(=O)O[C@]12C` [7.15], the “MIC S. pneumo. 1175” value in assay [1] (S. pneumoniae 1175 (mefA)) is 4 µg/mL (≈ 4.67 µM). For the same compound, in assay [2] (S. pneumoniae 1095 (ermB)), the “MIC S. pneumo. 1095” value was above 64.00 µg/mL. Further, in assay [3] (S. pyogenes 1079 (ermB)), the “MIC S. pyogenes 1079” value is above 64.00 µg/mL. The “MIC S. pneumo. 1016” value in assay [4] (setting [6]) is below 0.06 µg/mL. Besides, in assay [5] (setting [7]), the “MIC H. influenzae 1218” value was 2 µg/mL (≈ 2.34 µM).

Take `CCC1OC(=O)C(C)C(=O)C(C)C(OC2OC(C)CC(N(C)C)C2O)C(C)(OC)CC(C)C(=O)C(C)C2N(CC3CCN(Cc4ccc(-c5ccccn5)cc4)C3)C(=O)OC12C` (stereo not shown) [13.05]: the “MIC S. pneumo. 1175” value in assay [1] (S. pneumoniae 1175 (mefA)) was found to be 0.5 µg/mL (≈ 0.579 µM). For the same compound, the “MIC S. pneumo. 1095” value in assay [2] (S. pneumoniae 1095 (ermB)) was found to be 16 µg/mL (≈ 18.5 µM). In addition, in assay [3] (S. pyogenes 1079 (ermB)), the “MIC S. pyogenes 1079” value was above 64.00 µg/mL. Moreover, the “MIC S. pneumo. 1016” value in assay [4] (setting [6]) was below 0.06 µg/mL. The “MIC H. influenzae 1218” value in assay [5] (setting [7]) was 4 µg/mL (≈ 4.63 µM).

On to `CCC1OC(=O)C(C)C(=O)C(C)C(OC2OC(C)CC(N(C)C)C2O)C(C)(OC)CC(C)C(=O)C(C)C2N(CC3CCCN3S(=O)(=O)c3cccc4cnccc34)C(=O)OC12C` (stereo not shown) [10.46], for which, in assay [1] (S. pneumoniae 1175 (mefA)), the “MIC S. pneumo. 1175” value is below 0.06 µg/mL. For the same compound, in assay [2] (S. pneumoniae 1095 (ermB)), the “MIC S. pneumo. 1095” value is below 0.06 µg/mL. In assay [3] (S. pyogenes 1079 (ermB)), the “MIC S. pyogenes 1079” value was 64 µg/mL (≈ 72.1 µM). Also, the “MIC S. pneumo. 1016” value in assay [4] (setting [6]) was below 0.06 µg/mL. The “MIC H. influenzae 1218” value in assay [5] (setting [7]) was 1 µg/mL (≈ 1.13 µM).

Regarding `CCc1noc(-c2cccc(CN3CC(N4C(=O)OC5(C)C(CC)OC(=O)C(C)C(=O)C(C)C(OC6OC(C)CC(N(C)C)C6O)C(C)(OC)CC(C)C(=O)C(C)C45)C3)c2)n1` (stereo not shown) [Example 1.44, 3-(3-ethyl-[1,2,4]oxadiazol-5-yl)benzyl], in assay [1] (Streptococcus pneumoniae 1175), the “MIC S. pneumo. 1175” value amounted to 0.5 µg/mL (≈ 0.585 µM). Moreover, in assay [2] (Streptococcus pneumoniae 1095), the “MIC S. pneumo. 1095” value is below 0.06 µg/mL. In addition, in assay [3] (Streptococcus pyogenes 1079), the “MIC S. pyogenes 1079” value was above 64.00 µg/mL. The “MIC S. pneumo. 1016” value in assay [4] (Streptococcus pneumoniae 1016) is below 0.06 µg/mL. The “MIC H. influenzae 1218” value in assay [5] (Haemophilus influenzae 1218) is 16 µg/mL (≈ 18.7 µM).

On to `CCC1OC(=O)C(C)C(=O)C(C)C(OC2OC(C)CC(N(C)C)C2O)C(C)(OC)CC(C)C(=O)C(C)C2N(CC3CCCN3C(=O)c3nc4cccnc4[nH]3)C(=O)OC12C` (stereo not shown) [10.25], for which, in assay [1] (S. pneumoniae 1175 (mefA)), the “MIC S. pneumo. 1175” value is 0.5 µg/mL (≈ 0.595 µM). Further, in assay [2] (S. pneumoniae 1095 (ermB)), the “MIC S. pneumo. 1095” value is below 0.06 µg/mL. For the same compound, the “MIC S. pyogenes 1079” value in assay [3] (S. pyogenes 1079 (ermB)) was above 64.00 µg/mL. Besides, the “MIC S. pneumo. 1016” value in assay [4] (setting [6]) was below 0.06 µg/mL. The “MIC H. influenzae 1218” value in assay [5] (setting [7]) stood at 4 µg/mL (≈ 4.76 µM).

Turning to `CCC1OC(=O)C(C)C(=O)C(C)C(OC2OC(C)CC(N(C)C)C2O)C(C)(OC)CC(C)C(=O)C(C)C2N(CC3CCCN3Cc3ccc(OC)nc3)C(=O)OC12C` (stereo not shown) [12.03], the “MIC S. pneumo. 1175” value in assay [1] (S. pneumoniae 1175 (mefA)) was determined as 0.5 µg/mL (≈ 0.612 µM). Moreover, the “MIC S. pneumo. 1095” value in assay [2] (S. pneumoniae 1095 (ermB)) is above 64.00 µg/mL. Further, in assay [3] (S. pyogenes 1079 (ermB)), the “MIC S. pyogenes 1079” value is above 64.00 µg/mL. Besides, in assay [4] (setting [6]), the “MIC S. pneumo. 1016” value is below 0.06 µg/mL. Also, the “MIC H. influenzae 1218” value in assay [5] (setting [7]) amounted to 4 µg/mL (≈ 4.9 µM).

For `CCC1OC(=O)C(C)C(=O)C(C)C(OC2OC(C)CC(N(C)C)C2O)C(C)(OC)CC(C)C(=O)C(C)C2N(C3CCN(Cc4c[nH]c5ncccc45)C3)C(=O)OC12C` [Example 9.03, 3-descladinosyl-11,12-dideoxy-6-O-methyl-3-oxo-12,11-(oxycarbonyl-(1-((1H-pyrrolo[2,3-b]pyridin-3-yl)-methyl)-(R)-pyrrolidin-3-yl)-imino)-erythromycin A], the “MIC S. pneumo. 1175” value in assay [1] (S. pneumoniae 1175 (mefA)) worked out at 0.5 µg/mL (≈ 0.616 µM). Also, the “MIC S. pneumo. 1095” value in assay [2] (S. pneumoniae 1095 (ermB)) is below 0.06 µg/mL. In assay [3] (S. pyogenes 1079 (ermB)), the “MIC S. pyogenes 1079” value was 1 µg/mL (≈ 1.23 µM). For the same compound, the “MIC S. pneumo. 1016” value in assay [4] (setting [6]) is below 0.06 µg/mL. In assay [5] (setting [7]), the “MIC H. influenzae 1218” value came out at 0.12 µg/mL (≈ 0.148 µM).

`CCC1OC(=O)C(C)C(=O)C(C)C(OC2OC(C)CC(N(C)C)C2O)C(C)(OC)CC(C)C(=O)C(C)C2N(C3CN(S(=O)(=O)c4cccc(-c5cc[nH]n5)c4)C3)C(=O)OC12C` (stereo not shown) [Example 3.36, 3-descladinosyl-11,12-dideoxy-6-O-methyl-3-oxo-12,11-(oxycarbonyl-(1-(3-(1H-pyrazol-3-yl)benzenesulfonyl)-azetidin-3-yl)-imino)-erythromycin A]: the “MIC S. pneumo. 1175” value in assay [1] (Streptococcus pneumoniae 1175) is below 0.06 µg/mL. In assay [2] (Streptococcus pneumoniae 1095), the “MIC S. pneumo. 1095” value is below 0.06 µg/mL. Besides, in assay [3] (Streptococcus pyogenes 1079), the “MIC S. pyogenes 1079” value was determined as 1 µg/mL (≈ 1.14 µM). The “MIC S. pneumo. 1016” value in assay [4] (Streptococcus pneumoniae 1016) is below 0.06 µg/mL. In addition, the “MIC H. influenzae 1218” value in assay [5] (Haemophilus influenzae 1218) was 0.25 µg/mL (≈ 0.286 µM).

As to `CCC1OC(=O)C(C)C(=O)C(C)C(OC2OC(C)CC(N(C)C)C2O)C(C)(OC)CC(C)C(=O)C(C)C2N(CC3CCN(Cc4nccc5ccccc45)C3)C(=O)OC12C` (stereo not shown) [11.10], in assay [1] (S. pneumoniae 1175 (mefA)), the “MIC S. pneumo. 1175” value was below 0.06 µg/mL. Moreover, the “MIC S. pneumo. 1095” value in assay [2] (S. pneumoniae 1095 (ermB)) is below 0.06 µg/mL. Besides, the “MIC S. pyogenes 1079” value in assay [3] (S. pyogenes 1079 (ermB)) is 64 µg/mL (≈ 76.5 µM). Besides, the “MIC S. pneumo. 1016” value in assay [4] (setting [6]) is below 0.06 µg/mL. In assay [5] (setting [7]), the “MIC H. influenzae 1218” value is 0.12 µg/mL (≈ 0.143 µM).

With `CCC(c1ccnc2ccccc12)N1CC(N2C(=O)OC3(C)C(CC)OC(=O)C(C)C(=O)C(C)C(OC4OC(C)CC(N(C)C)C4O)C(C)(OC)CC(C)C(=O)C(C)C23)C1` (mixture of isomers) [Example 1.61, 3-descladinosyl-11,12-dideoxy-6-O-methyl-3-oxo-12,11-(oxycarbonyl-(1-(1-(quinolin-4-yl)-propyl)-azetidin-3-yl)-imino)-erythromycin A], in assay [1] (Streptococcus pneumoniae 1175), the “MIC S. pneumo. 1175” value stood at 0.25 µg/mL. Besides, the “MIC S. pneumo. 1095” value in assay [2] (Streptococcus pneumoniae 1095) is below 0.06 µg/mL. Moreover, the “MIC S. pyogenes 1079” value in assay [3] (Streptococcus pyogenes 1079) amounted to 8 µg/mL. Besides, the “MIC S. pneumo. 1016” value in assay [4] (Streptococcus pneumoniae 1016) was below 0.06 µg/mL. Also, in assay [5] (Haemophilus influenzae 1218), the “MIC H. influenzae 1218” value was 4 µg/mL.
